Source: US20240335383A1, “NANOPARTICULATE FORMULATION” (NewImmune II, LLC, priority 2021, published 2024)
Where two headings read alike, the source gives them in different places.

How the values were obtained:
IL-2 stimulated B cells = conditions: Glaum et al, 2009; cited from earlier work
[1] = Britton-Robinson buffer, FIG. 1
[2] = imiquimod; cited from earlier work
T effector memory cells = conditions: Fiorenza et al, 2012; cited from earlier work
[3] = rats, single subcutaneous dose; cited from earlier work
[4] = pregnant female rabbits, intravenous, gestational Days 6-18; cited from earlier work
[5] = EMA toxicology review of Aldara; cited from earlier work
[6] = mice, dermal exposure; cited from earlier work
[7] = mice, rats, and monkeys; adverse effects limited to the central nervous system; cited from earlier work
[8] = rabbits, doses of 2000 and 5000 mg/kg under occlusion; cited from earlier work
[9] = rats, oral, repeated dose up to 6 months; cited from earlier work
[10] = monkeys, oral, repeated dose up to 6 months; cited from earlier work
[11] = test system: mesothelioma, renal cell carcinoma and 4T1 breast cancer; conditions: mouse models, cited from earlier work
[12] = injected subcutaneously into patients; cited from earlier work
[13] = 30 mg subcutaneous dose, healthy human volunteers; cited from earlier work
[14] = design: species or system human
Source text: The efficacy of the presently disclosed compositions and nanoparticles allows for the administration of relatively low doses.

Q: Which “IgM and IgG production by IL-2 stimulated B cells” value (IL-2 stimulated B cells) does the source give for `CCOCc1nc2c(N)nc3ccccc3c2n1CC(C)(C)O` [resiquimod] here?
A: Its value is “synergistically enhance IgM and IgG production”.

Q: With `CC(C)Cn1cnc2c(N)nc3ccccc3c21` [imiquimod, 1-(2-methylpropyl)imidazo[4,5-c]quinolin-4-amine] as the molecule, how does the “pH of maximum solubility in aqueous solution” value [1] read?
A: Its value is at most 2.

Q: And the “aqueous solubility above pH 6” value ([1]; above pH 6)?
A: The value was “sparingly soluble”.

Q: What about the in vivo half-life [2] of the same molecule?
A: Its in vivo half-life is “approximately 3 hours”.

Q: What about the “cytotoxic activity of T effector memory cells” value (T effector memory cells) of the same molecule?
A: The value was “enhances the cytotoxic activity”.

Q: What about the subcutaneous lethal dose [3] of the same molecule?
A: The subcutaneous lethal dose was 20 mg/kg.

Q: And the “dose with no treatment related effects on embryofetal toxicity or teratogenicity” value [4]?
A: Its value is 2 mg/kg/day.

Q: And the effect on fertility [5]?
A: The effect on fertility was “did not affect fertility”.

Q: What about the teratogenicity and genotoxicity [5] of the same molecule?
A: The teratogenicity and genotoxicity was “neither teratogenic nor genotoxic”.

Q: And the “carcinogenicity: incidence of tumors or non-neoplastic lesions” value [6]?
A: The value was “no increase in the incidence of tumors or non-neoplastic lesions”.

Q: And the single dose toxicity [7]?
A: Its single dose toxicity is “high degree of safety”.

Q: What about the dermal toxicity [8] of the same molecule?
A: The dermal toxicity was “no deaths and no signs of toxicity other than mild transient erythema at the application site”.

Q: What about the “no observed adverse effect level (NOAEL)” value [9] of the same molecule?
A: The value was 3 mg/kg.

Q: And the “no observed adverse effect level (NOAEL)” value [10]?
A: Its value is 3 mg/kg.

Q: And the “overt signs of toxicity (such as weight loss and ruffled fur)” value ([11]; 50 μL injections of 50 μg/mL imiquimod)?
A: The value was “not associated with overt signs of toxicity”.

Q: What about the “increase in survival time at maximum inhibition of tumor growth” value ([11]; intratumoral, 50 μL injections of 50 μg/mL imiquimod (p<0.05)) of the same molecule?
A: The value was over 50%.

Q: And the growth of tumor ([11]; only locally (intratumoral) delivered)?
A: Its growth of tumor is “consistently and significantly retarded the growth of tumor”.

Q: What about the systemic exposure [12] of the same molecule?
A: Its systemic exposure is “minimal systemic exposure”.

Q: And the “tolerability of subcutaneous dose” value [13]?
A: The value was “well tolerated”.

Q: With polyethylene glycol 4000 [PEG 4000] as the molecule, how does the “Safety Factor (excipient dose from approved drug vs excipient dose from NP)” value [14] read?
A: Its value is 2-fold.

Q: For “2-hydroxypropyl-β-cyclodextrin [HP-β-CD]”, which “Safety Factor (excipient dose from approved drug vs excipient dose from NP)” value [14] is on record?
A: The value was 11-fold.
